Here are results for two compounds from patent publication US20230101903A1, “COMPOUNDS USEFUL AS ANTI-VIRAL AGENTS” (NATURE CRETE PHARMACEUTICALS PC, priority 2020, published 2023).

Each structure is given as a SMILES string. ≈ marks a conversion by molar mass, not a printed value. Where two headings read alike, the source gives them in different places.

Assay [1] deals with SARS-CoV-2 (isolate 30-287). Kind of assay: microbe, parasite or virus in culture. It is filed as cell-based. The settings on record: Severe acute respiratory syndrome coronavirus 2, Vero C1008, VERO E6 cells, 96 hours, read-out: IC50, synthesis of new viral RNA.
Assay [2] deals with Influenza A/FM/1/47/H1N1. Kind of assay: virus titer of supernatants of infected MDCK-II cells (plaque titration). The format is cell-based, human Influenza A/FM/1/47/H1N1 strain. As for the experimental part:
(§1) All assays in Examples 1, 2, 4 and 5 were performed with the human Influenza A/FM/1/47/H1N1 strain, and canine MDCK-II cells, whilst in Example 7 VERO E6 monkey kidney cells were used.
MDCK-II cells in Minimal Essential Medium (MEM) were seeded into a 6-well plate and incubated at 37° C. The following day, the cells were infected with influenza A/FM/1/47/H1N1 and incubated at 37° C. for 2 hours, followed by washing extensively with serum free MEM.
The infected cells were then cultured in media supplemented with varying concentrations of Compound A at 37° C. for 24 to 48 hours. Supernatants of the infected cells, containing the newly synthesised virions, were harvested and titrated in MDCK-II cells. Upon plaque formation, the infected cells were washed with phosphate-buffered saline (PBS) and fixed with paraformaldehyde. Cell monolayers were stained with crystal violet and observed microscopically.

For assay [3], the system named is influenza virus A/FM/1/47/H1N1. Kind of assay: Real-Time PCR of newly synthesized viral RNA (M1 genome copies) in infected MDCK-II cells. It is filed as cell-based, human Influenza A/FM/1/47/H1N1 strain. The settings on record: 12 hours. As for the experimental part:
as §1
MDCK-II cells were plated in 12-well plates. After overnight incubation, the cells were washed with phosphate-buffer saline (PBS) and infected with influenza virus A/FM/1/47/H1N1) for 2 hours at 37° C.
The inoculum was then removed and the cells were incubated with MEM containing various concentrations of Compound A for 12 hours.
Background: Real-time PCR tracks product formation cycle by cycle.

Assay [4] deals with influenza virus A/FM/1/47. Description: intracellular viral nucleoprotein (NP) by Western Blot Analysis in infected cells. The settings on record: p-cymene 200 ng/mL; 7, 10 and 24 hours after infection. The format is cell-based, human Influenza A/FM/1/47/H1N1 strain. As for the experimental part:
as §1
Intracellular viral nucleoprotein (NP) concentration was quantified by Western Blot Analysis at 7, 10 and 24 hours after infection.
A six-well culture plate was seeded with cells, which were then incubated at 37° C. for 24 hours under 5% CO2. The cells were infected with influenza virus A/FM/1/47 at 37° C. for 1 hour and then p-cymene was added (200 ng/mL). The cells were harvested at the indicated time periods (7h, 10h and 24h). The lysates were incubated for 20 min on ice and then centrifuged at 14,000×g for 10 min at 4° C. The supernatants were collected and equal amounts of proteins were resolved by sodium dodecyl sulfate (10%) polyacrylamide gel electrophoresis.

Assay [5] has as its system Influenza A/FM/1/47/H1N1. Kind of assay: plaque-reduction assay in MDCK-II cells. It is filed as cell-based, human Influenza A/FM/1/47/H1N1 strain. The settings on record: 72 hours, all concentrations above 200 ng/mL. On the procedure:
as §1
The antiviral activity of p-cymene in Influenza A/FM/1/47/H1N1 was assayed in a plaque-reduction assay (expressed in forming plaques).
Canine MDCK-II cells were seeded into 6-well plastic plates and cultured at 37° C. under 5% CO2 for 24 hours. The MDCK-II cells were then inoculated with Influenza A/FM/1/47/H1N1 for 2 hours, after which the infected cells were washed and cultured for 72 hours at 37° C. under 5% CO2 in the presence of different concentrations of p-cymene in Minimum Essential Medium (MEM). Ribavirin was used as a control at a concentration of 25 μM.
After incubation, the virus-infected cells were observed microscopically. After 3 days of infection, cells were fixed with paraformaldehyde and cell monolayers were stained with crystal violet.
(Plaques are areas of infected cells; plaque reduction assays count them against a control.)

Where [6] appears, read: pre-incubation (2 hours before infection).

Broadly, the IC50 is the concentration that inhibits the measured activity by half. With `CCCOCC(CC)c1ccc(C)cc1` (stereo not shown) [Compound A], the values for the IC50 in assay [1] (co-incubation) and in assay [1] (setting [6]) were 38 µg/mL and 9 µg/mL (≈ 43.6 µM), respectively. In addition, the virus titer entry with Influenza A/FM/1/47/H1N1 [2] (MDCK-II cells, 24 and 48 hpi, varying concentrations) is given as “significantly decreased virus titer”. In the assay on Influenza A/FM/1/47/H1N1 [2] (compared with ribavirin), the “anti-viral action (conclusion of the in vitro studies)” value is listed as “significant anti-viral action, comparable with that of ribavirin”. In assay [3] (all concentrations tested), the “synthesis of new viral RNA” value was “inhibits”. In addition, in assay [3] (nuclear RNA), the “viral M1 genome copy numbers” value is given as “decreased”.

With `Cc1ccc(C(C)C)cc1` [p-cymene], the half-inhibitory concentration (IC50) in assay [1] (co-incubation) amounted to 83 µg/mL; in assay [1] (setting [6]), 59 µg/mL (≈ 440 µM). In assay [4], the “amount of intracellular viral nucleoprotein (NP)” value is given as “significantly decreased”. In addition, the “plaque formation (number of forming plaques)” value with Influenza A/FM/1/47/H1N1 [5] is given as “significant, dose-dependent decrease of plaque formation”.
